The values below come from patent US20220340875A1, “METHODS OF CULTURING AND/OR EXPANDING STEM CELLS AND/OR LINEAGE COMMITTED PROGENITOR CELLS USING AMIDO COMPOUNDS” (IDEAYA BIOSCIENCES, INC., priority 2018, published 2022).

As a reminder, the IC50 is the concentration needed to halve the response being measured. Lower therefore signals higher potency.

Some results are limits rather than exact numbers.

The target in the test is T1, hAhR (Homo sapiens, UniProt P35869).
T1 construct: Stably integrated DRE-luciferase cell lines were generated by transducing the both cell lines with Cignal XRE luciferase reporter (Qiagen) lentiviral particles; endogenous in cells
T1 sequence (P35869 11-848): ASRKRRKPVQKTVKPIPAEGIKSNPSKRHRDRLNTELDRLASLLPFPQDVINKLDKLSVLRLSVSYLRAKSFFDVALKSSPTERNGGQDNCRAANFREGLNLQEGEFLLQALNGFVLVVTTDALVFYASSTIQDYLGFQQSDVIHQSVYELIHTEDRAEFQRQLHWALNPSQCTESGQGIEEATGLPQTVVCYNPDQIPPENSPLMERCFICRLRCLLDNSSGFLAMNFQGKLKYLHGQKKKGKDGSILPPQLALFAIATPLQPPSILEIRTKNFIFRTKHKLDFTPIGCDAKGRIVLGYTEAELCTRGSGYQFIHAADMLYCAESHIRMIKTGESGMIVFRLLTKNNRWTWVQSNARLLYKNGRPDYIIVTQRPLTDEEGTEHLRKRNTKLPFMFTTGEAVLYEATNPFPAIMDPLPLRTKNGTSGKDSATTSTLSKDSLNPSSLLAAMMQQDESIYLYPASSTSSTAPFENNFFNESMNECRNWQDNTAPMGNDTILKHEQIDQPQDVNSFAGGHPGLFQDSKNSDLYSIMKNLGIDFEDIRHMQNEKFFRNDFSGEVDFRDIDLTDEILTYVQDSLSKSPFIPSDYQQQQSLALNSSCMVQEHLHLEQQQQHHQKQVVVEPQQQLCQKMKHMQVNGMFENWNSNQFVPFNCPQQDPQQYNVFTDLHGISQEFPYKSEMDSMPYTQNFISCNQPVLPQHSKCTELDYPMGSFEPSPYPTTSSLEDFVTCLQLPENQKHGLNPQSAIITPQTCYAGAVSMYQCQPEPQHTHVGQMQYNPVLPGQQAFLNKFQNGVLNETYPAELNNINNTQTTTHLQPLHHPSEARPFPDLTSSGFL
The test is described as follows: AhR DRE-luciferase reporter transcriptional assay, antagonist mode (TCDD-induced). The test is classed as cell-based. As to conditions: HEPG2 DRE-Luc cells, 3 nM TCDD, 24 hour incubation, relative IC50. The protocol: HEPG2 and HEPA1C1C7 cells were maintained in MEM and αMEM without nucleosides supplemented with 10% heat inactivated FBS respectively. Stably integrated DRE-luciferase cell lines were generated by transducing the both cell lines with Cignal XRE luciferase reporter (Qiagen) lentiviral particles according to the manufacturer protocol. For both cell lines stably integrated reporter cell lines were selected for the presence of 2 µg/mL puromycin. Following selection of stably integrated cell line pools, clonal cell lines were isolated by limiting dilution in 96-well plates. Transcriptional assays were performed by seeding 100 μL of cells at a density of 250,000 or 100,000 cells/mL, for HEPG2 and HEPA1C1C7 DRE-Luc cells respectively, into 96-well cell culture plates in OptiMEM supplemented with 0.5% heat inactivated FBS and allowed to attach overnight. For modulator assays, the compounds were added in a semi-log dose response using a D300e Digital Dispenser (Tecan) followed normalization with vehicle (DMSO). Immediately following compound addition 10 μL of 2,3,7,8-Tetrachlorodibenzo-p-dioxin (TCDD) was added to the cells to a final concentration of 3 nM or 0.3 nM for the HEPG2 and HEPA1C1C7 DRE-Luc cells respectively. Following 24 hour incubation the medium was removed and the cells were lysed in 25 μL of Reporter Lysis Buffer (Promega). Firefly luciferase activity was measured immediately following the addition of 50 μL Luciferase Assay Reagent (Promega). The percent maximal activity for each point was determined using the following equasion: (RLUsample-RLUvehicle−TCDD)/(RLUvehicle+TCDD RLUvehicle−TCDD)*100. The relative IC50, defined as the compound concentration required to reduce the TCDD induced response between the top and bottom plateau of each individual dose response curve by half, for each compound was determined using Prism 7 (GraphPad Software).
For the compound `Cc1c(-c2ncc3nc(C(F)(F)F)ccc3n2)ccc(N(C)C(=O)c2ccnn2C)c1C` [Example 191, N-(2,3-dimethyl-4-(6-(trifluoromethyl)pyrido[3,2-d]pyrimidin-2-yl)phenyl)-N,1-dimethyl-1H-pyrazole-5-carboxamide], the IC50 lay in the range of 1 to 10 µM.
As to `Cc1cc(-c2ccc3c(ccn3CC(F)(F)F)c2)ccc1NC(=O)c1ccnn1C` [Example 088, 1-methyl-N-(2-methyl-4-(1-(2,2,2-trifluoroethyl)-1H-indol-5-yl)phenyl)-1H-pyrazole-5-carboxamide], the IC50 lay within 1 to 10 µM.
Then `Cc1cc(-c2ccc3cc(C(F)(F)F)ccc3n2)ccc1NC(=O)c1ccnn1C` [Example 001, 1-methyl-N-(2-methyl-4-(6-(trifluoromethyl)quinolin-2-yl)phenyl)-1H-pyrazole-5-carboxamide], with 0.2 to 0.5 µM; and `Cc1cc(-c2ncc3ccc(C(F)(F)F)cc3n2)ccc1NC(=O)c1ccnn1C` [Example 108, 1-methyl-N-(2-methyl-4-(7-(trifluoromethyl)quinazolin-2-yl)phenyl)-1H-pyrazole-5-carboxamide], with less than 0.2 µM; and `Cc1cc(-c2ccc3cccc(C)c3n2)ccc1NC(=O)c1ccnn1C` [Example 020, 1-Methyl-N-(2-methyl-4-(8-methylquinolin-2-yl)phenyl)-1H-pyrazole-5-carboxamide], with less than 0.2 µM.
Take `Cc1cc(-c2ccc3nc(C(F)(F)F)cc(C)c3n2)ccc1NC(=O)c1ccnn1C` [Example 105, 1-methyl-N-(2-methyl-4-(8-methyl-6-(trifluoromethyl)-1,5-naphthyridin-2-yl)phenyl)-1H-pyrazole-5-carboxamide]: the IC50 is less than 0.2 µM.
The compound `Cc1cc(-c2ccc3cc(F)ccc3n2)ccc1NC(=O)c1cncn1C` [Example 034, N-(4-(6-fluoroquinolin-2-yl)-2-methylphenyl)-1-methyl-1H-imidazole-5-carboxamide] yielded an IC50 of 0.5 to 1 µM.
Compound `Cc1cc(-c2ncc3nc(C(F)(F)F)cc(C)c3n2)ccc1N(C)C(=O)c1ccnn1CC(N)=O` [Example 171, 1-(2-amino-2-oxoethyl)-N-methyl-N-(2-methyl-4-(8-methyl-6-(trifluoromethyl)pyrido[3,2-d]pyrimidin-2-yl)phenyl)-1H-pyrazole-5-carboxamide] returned an IC50 of 0.2 to 0.5 µM.
`Cc1cc(-c2ccc3cc(F)ccc3n2)ccc1NC(=O)c1ccnnc1` [Example 029, N-(4-(6-fluoroquinolin-2-yl)-2-methylphenyl)pyridazine-4-carboxamide] had an IC50 of 1 to 10 µM.
Then `Cc1cc(-c2ccc3cc(F)cc(C(C)C)c3n2)ccc1NC(=O)c1ccnn1C` [Example 055, N-(4-(6-fluoro-8-isopropylquinolin-2-yl)-2-methylphenyl)-1-methyl-1H-pyrazole-5-carboxamide], with 1 to 10 µM.
`Cc1cc(-c2ccc3nncc(C)c3c2)ccc1NC(=O)c1ccnn1C` [Example 062, 1-methyl-N-(2-methyl-4-(4-methylcinnolin-6-yl)phenyl)-1H-pyrazole-5-carboxamide] gave a half-inhibitory concentration (IC50) of 1 to 10 µM.
`Cc1cc(-c2ccc3cc(C(F)(F)F)ccc3n2)cc(F)c1N(C)C(=O)c1ccnn1C` [Example 007, N-(2-fluoro-6-methyl-4-(6-(trifluoromethyl)quinolin-2-yl)phenyl)-N,1-dimethyl-1H-pyrazole-5-carboxamide]: the IC50 is less than 0.2 µM.
In the case of `Cc1cc(-c2ccc3cc(-c4nnn[nH]4)ccc3n2)ccc1NC(=O)c1ccnn1C` [Example 063, N-(4-(6-(1H-tetrazol-5-yl)quinolin-2-yl)-2-methylphenyl)-1-methyl-1H-pyrazole-5-carboxamide], the IC50 lay in the range of 1 to 10 µM.
`CC(=O)Nc1ccc(-c2ccc3cc(F)ccc3n2)cc1C` [Example 040, N-(4-(6-fluoroquinolin-2-yl)-2-methylphenyl)acetamide] registered an IC50 of 0.2 to 0.5 µM.
`Cc1c(-c2ncc3nc(C(F)(F)F)cc(C)c3n2)ccc(N(C)C(=O)c2ccnn2C)c1F` [Example 177, N-(2-fluoro-3-methyl-4-(8-methyl-6-(trifluoromethyl)pyrido[3,2-d]pyrimidin-2-yl)phenyl)-N,1-dimethyl-1H-pyrazole-5-carboxamide]: the IC50 was less than 0.2 µM.
`Cc1cc(-c2ncc3nc(C(F)(F)F)cc(C)c3n2)ccc1N(C)C(=O)c1ccnn1CC(C)O` (stereo not shown) [Example 192, 1-(2-hydroxypropyl)-N-methyl-N-(2-methyl-4-(8-methyl-6-(trifluoromethyl)pyrido[3,2-d]pyrimidin-2-yl)phenyl)-1H-pyrazole-5-carboxamide] returned an IC50 of less than 0.2 µM.
Then `Cc1cc(-c2ncc3cc(C(F)(F)F)ccc3n2)ccc1NC(=O)c1ncncc1C` [Example 123, 5-methyl-N-(2-methyl-4-(6-(trifluoromethyl)quinazolin-2-yl)phenyl)pyrimidine-4-carboxamide], with 0.5 to 1 µM.
Consider `Cc1cc(-c2ccc3cc(F)cc(C4CC4)c3n2)ccc1NC(=O)c1ccnn1C` [Example 053, N-(4-(8-cyclopropyl-6-fluoroquinolin-2-yl)-2-methylphenyl)-1-methyl-1H-pyrazole-5-carboxamide], for which the IC50 fell in the range of 0.5 to 1 µM.
In the case of `Cc1cc(-c2ncc3cc(C(F)(F)F)cc(C)c3n2)ccc1N(C)C(=O)c1ccnn1C` [Example 111, N,1-dimethyl-N-(2-methyl-4-(8-methyl-6-(trifluoromethyl)quinazolin-2-yl)phenyl)-1H-pyrazole-5-carboxamide], the IC50 is less than 0.2 µM.
`Cc1cc(-c2ccc3cc(F)ccc3n2)ccc1NC(=O)N1CCOCC1` [Example 041, N-(4-(6-fluoroquinolin-2-yl)-2-methylphenyl)morpholine-4-carboxamide] registered an IC50 of 1 to 10 µM.
In turn, `Cc1cc(-c2ncc3cc(C(F)(F)F)ccc3n2)ccc1NC(=O)c1ccncc1C` [Example 121, 3-methyl-N-(2-methyl-4-(6-(trifluoromethyl)quinazolin-2-yl)phenyl)isonicotinamide] came in with an IC50 of less than 0.2 µM.
As to `Cc1cc(-c2ccc3cc(F)ccc3n2)ccc1NC(=O)c1ccnn1C` [Example 014, N-(4-(6-fluoroquinolin-2-yl)-2-methylphenyl)-1-methyl-1H-pyrazole-5-carboxamide], the IC50 lay within 0.2 to 0.5 µM.
Compound `Cc1cc(-c2ccc3cc(F)cc(C)c3n2)ccc1NC(=O)c1ccnn1C` [Example 052, N-(4-(6-fluoro-8-methylquinolin-2-yl)-2-methylphenyl)-1-methyl-1H-pyrazole-5-carboxamide] returned an IC50 of less than 0.2 µM.
In turn, `Cc1cc(-c2ccc3cc(OC(F)(F)F)ccc3n2)ccc1N(C)C(=O)c1ccnn1C` [Example 010, N,1-dimethyl-N-(2-methyl-4-(6-(trifluoromethoxy)quinolin-2-yl)phenyl)-1H-pyrazole-5-carboxamide] showed an IC50 of 0.2 to 0.5 µM.
As for `Cc1cc(-c2ncc3cc(C(F)(F)F)ccc3n2)ccc1NC(=O)c1c(C)cnn1C` [Example 215, 1,4-dimethyl-N-(2-methyl-4-(6-(trifluoromethyl)quinazolin-2-yl)phenyl)-1H-pyrazole-5-carboxamide], the IC50 is less than 0.2 µM.
Then `Cc1cc(-c2ccc3cc(F)ccc3n2)ccc1NC(=O)c1ccno1` [Example 037, N-(4-(6-fluoroquinolin-2-yl)-2-methylphenyl)isoxazole-5-carboxamide], with 0.5 to 1 µM.
Then `Cc1nc(NC(=O)c2ccnn2C)ccc1-c1ccc2cc(F)ccc2n1` [Example 044, N-(5-(6-fluoroquinolin-2-yl)-6-methylpyridin-2-yl)-1-methyl-1H-pyrazole-5-carboxamide], with 1 to 10 µM; and `Cc1nc(-c2ccc3cc(F)ccc3n2)ccc1NC(=O)c1ccnn1C` [Example 045, N-(6-(6-fluoroquinolin-2-yl)-2-methylpyridin-3-yl)-1-methyl-1H-pyrazole-5-carboxamide], with 1 to 10 µM.
